The CheMixHub viscosity set
± gives the uncertainty stated by the source.

Test: xn = mol fraction of the nth substance listed

CCOCC + CCO
298.15 K, 101 kPa
Conditions | viscosity [mPa·s]
x1 = 0.1577 | 0.741 ± 0.0076
x1 = 0.3593 | 0.478 ± 0.005
x1 = 0.4569 | 0.4 ± 0.0042
x1 = 0.5301 | 0.359 ± 0.0037
x1 = 0.6268 | 0.315 ± 0.0033
x1 = 0.6925 | 0.29 ± 0.003
x1 = 0.7978 | 0.264 ± 0.0028

CCC12CC3CC(CC(C3)C1)C2 + CCCCCCCCC
viscosity [mPa·s], 100 kPa
Conditions | x1 = 0.0998 | x1 = 0.2013 | x1 = 0.3004 | x1 = 0.4014 | x1 = 0.5002 | x1 = 0.5999 | x1 = 0.7002 | x1 = 0.7995 | x1 = 0.9008
293.15 K | 1.043 ± 0.042 | 1.335 ± 0.054 | 1.642 ± 0.067 | 1.902 ± 0.077 | 2.234 ± 0.091 | 2.701 ± 0.11 | 3.287 ± 0.13 | 4.086 ± 0.17 | 5.133 ± 0.21
298.15 K | 0.972 ± 0.04 | 1.243 ± 0.051 | 1.492 ± 0.061 | 1.728 ± 0.07 | 2.019 ± 0.082 | 2.384 ± 0.097 | 2.881 ± 0.12 | 3.537 ± 0.14 | 4.44 ± 0.18
303.15 K | 0.921 ± 0.037 | 1.141 ± 0.046 | 1.369 ± 0.056 | 1.577 ± 0.064 | 1.836 ± 0.075 | 2.144 ± 0.087 | 2.581 ± 0.11 | 3.158 ± 0.13 | 3.898 ± 0.16
308.15 K | 0.836 ± 0.034 | 1.053 ± 0.043 | 1.261 ± 0.051 | 1.448 ± 0.059 | 1.684 ± 0.068 | 1.957 ± 0.08 | 2.34 ± 0.095 | 2.833 ± 0.12 | 3.47 ± 0.14
313.15 K | 0.786 ± 0.032 | 0.985 ± 0.04 | 1.166 ± 0.047 | 1.334 ± 0.054 | 1.547 ± 0.063 | 1.792 ± 0.073 | 2.128 ± 0.087 | 2.556 ± 0.1 | 3.114 ± 0.13
318.15 K | 0.729 ± 0.03 | 0.901 ± 0.037 | 1.073 ± 0.044 | 1.232 ± 0.05 | 1.416 ± 0.058 | 1.644 ± 0.067 | 1.94 ± 0.079 | 2.32 ± 0.094 | 2.815 ± 0.12
323.15 K | 0.696 ± 0.028 | 0.85 ± 0.035 | 1.006 ± 0.041 | 1.144 ± 0.047 | 1.317 ± 0.054 | 1.515 ± 0.062 | 1.782 ± 0.072 | 2.115 ± 0.086 | 2.547 ± 0.1

O=C1CCCCC1 + OCCO
293.15 K, 101.33 kPa
Conditions | viscosity [mPa·s]
x2 = 0.1495 | 2.735 ± 1
x2 = 0.2349 | 3.114 ± 1
x2 = 0.293 | 3.566 ± 1
x2 = 0.4345 | 4.882 ± 1
x2 = 0.5042 | 5.922 ± 1
x2 = 0.5172 | 6.179 ± 1
x2 = 0.6565 | 9.855 ± 1
x2 = 0.6965 | 11.02 ± 1
x2 = 0.7152 | 11.2 ± 1
x2 = 0.7398 | 12.4 ± 1
x2 = 0.8522 | 17.59 ± 1
x2 = 0.8845 | 18.73 ± 1
